Paper PMC12473425, “Development and Evaluation of a Modified Fixed-Dose Combination Antihypertensive Tablet Containing S-Amlodipine Besylate: A Bioequivalence and Stability Study” (Pharmaceutics, 2025)

What was measured:
[1] = Compatibility study of each API alone or 1:1 (w/w) with excipients under stressed conditions, impurities by HPLC; assay type: physicochemical; conditions: 60 ± 2 °C/80 ± 5% RH
Protocol: We evaluated the compatibility between APIs and excipients, for which each API in […]® tablets was individually mixed in a 1:1 (w/w) ratio with excipients used in the formulation, as well as with commonly used tablet excipients selected based on their functional roles (e.g., diluents, binders, disintegrants, lubricants, etc.). […] The compatibility study was conducted in a temperature and humidity chamber (Sunil Eyela Co., Seongnam, Korea). Samples were withdrawn at predetermined intervals and analyzed for impurities (%). A HPLC system (Agilent Technologies, Inc. CA, USA) was used for the quantitative analysis of impurities. The column used was Symmetry C8 (100 mm × 4.6 mm, 3.5 μm, Waters Corp., Milford, CT, USA). Mobile phase A consisted of a mixture of phosphate buffer (pH 2.8) and acetonitrile at a ratio of […] prepared in a 1000 mL volumetric flask. The buffer was prepared by adjusting a 10% phosphoric acid solution to pH 2.8, filtered through a 0.45 μm membrane filter (Millipore; Billerica, MA, USA), and degassed before use. Mobile phase B consisted of a phosphate buffer (pH 2.8) and acetonitrile at a ratio of 600:1400 (v/v), which was similarly prepared and degassed before use. The mobile phases were delivered at a flow rate of 1.0 mL/min, the column temperature was maintained at 35 °C, and detection was performed at a wavelength of 250 nm.

[2] = parameters: method as in PMID 21966165; conditions: low solubility and high permeability; cited from earlier work
[3] = hydrochlorothiazide compatibility, 1w
[4] = hydrochlorothiazide compatibility, 2w
[5] = hydrochlorothiazide compatibility, 4w
[6] = hydrochlorothiazide compatibility, Initial
[7] = S-amlodipine besylate compatibility, 1w
[8] = S-amlodipine besylate compatibility, 2w
[9] = S-amlodipine besylate compatibility, 4w
[10] = olmesartan medoxomil compatibility, 1w
[11] = olmesartan medoxomil compatibility, 2w
[12] = olmesartan medoxomil compatibility, 4w
[13] = olmesartan medoxomil compatibility, Initial

**Q.** With NS(=O)(=O)c1cc2c(cc1Cl)NCNS2(=O)=O [Hydrochlorothiazide] as the compound, how does the “Benzothiadiazine Related Compound A” value [1, 3] read?
**A.** The value was “<LOQ”.

**Q.** And the “Total Impurity” value [1, 3]?
**A.** Its value is 0.08%.

**Q.** What about the “Unknown Impurity” value [1, 3] of the same compound?
**A.** The value was 0.08%.

**Q.** And the “Benzothiadiazine Related Compound A” value [1, 4]?
**A.** The value was “<LOQ”.

**Q.** And the “Total Impurity” value [1, 4]?
**A.** Its value is 0.08%.

**Q.** And the “Unknown Impurity” value [1, 4]?
**A.** The value was 0.08%.

**Q.** What about the “Benzothiadiazine Related Compound A” value [1, 5] of the same compound?
**A.** The value was “<LOQ”.

**Q.** What about the “Total Impurity” value [1, 5] of the same compound?
**A.** The value was 0.08%.

**Q.** And the “Unknown Impurity” value [1, 5]?
**A.** Its value is 0.08%.

**Q.** And the “Benzothiadiazine Related Compound A” value [1, 6]?
**A.** Its value is “<LOQ”.

**Q.** What about the “Total Impurity” value [1, 6] of the same compound?
**A.** Its value is 0.10%.

**Q.** And the “Unknown Impurity” value [1, 6]?
**A.** The value was 0.10%.

**Q.** With CCOC(=O)C1=C(COCCN)NC(C)=C(C(=O)OC)[C@@H]1c1ccccc1Cl.O.O.O=S(=O)(O)c1ccccc1 [S-amlodipine besylate, S-amlodipine besylate dihydrate] as the compound, how does the “Amlodipine Related Compound A” value [1, 7] read?
**A.** Its value is “<LOQ”.

**Q.** And the “Total Impurity” value [1, 7]?
**A.** Its value is “<LOQ”.

**Q.** And the “Unknown Impurity” value [1, 7]?
**A.** Its value is “<LOQ”.

**Q.** And the “Amlodipine Related Compound A” value [1, 8]?
**A.** Its value is “<LOQ”.

**Q.** What about the “Total Impurity” value [1, 8] of the same compound?
**A.** Its value is “<LOQ”.

**Q.** And the “Unknown Impurity” value [1, 8]?
**A.** Its value is “<LOQ”.

**Q.** What about the “Amlodipine Related Compound A” value [1, 9] of the same compound?
**A.** Its value is 0.06%.

**Q.** What about the “Total Impurity” value [1, 9] of the same compound?
**A.** The value was 0.30%.

**Q.** What about the “Unknown Impurity” value [1, 9] of the same compound?
**A.** Its value is 0.16%.

**Q.** For CCCc1nc(C(C)(C)O)c(C(=O)OCc2oc(=O)oc2C)n1Cc1ccc(-c2ccccc2-c2nnn[nH]2)cc1 [Olmesartan medoxomil], which RNH-8276 [1, 10] is on record?
**A.** Its RNH-8276 is “<LOQ”.

**Q.** What about the “Total Impurity” value [1, 10] of the same compound?
**A.** The value was “<LOQ”.

**Q.** And the “Unknown Impurity” value [1, 10]?
**A.** The value was “<LOQ”.

**Q.** What about the RNH-8276 [1, 11] of the same compound?
**A.** Its RNH-8276 is “<LOQ”.

**Q.** What about the “Total Impurity” value [1, 11] of the same compound?
**A.** The value was “<LOQ”.

**Q.** And the “Unknown Impurity” value [1, 11]?
**A.** The value was “<LOQ”.

**Q.** What about the RNH-8276 [1, 12] of the same compound?
**A.** Its RNH-8276 is “<LOQ”.

**Q.** And the “Total Impurity” value [1, 12]?
**A.** The value was 0.05%.

**Q.** What about the “Unknown Impurity” value [1, 12] of the same compound?
**A.** Its value is 0.05%.

**Q.** And the “Total Impurity” value [1, 13]?
**A.** The value was “<LOQ”.

**Q.** What about the “Unknown Impurity” value [1, 13] of the same compound?
**A.** The value was “<LOQ”.

**Q.** And the “Biopharmaceutics Classification System (BCS) class” value [2]?
**A.** The value was “Class II”.
